Values of other authors in patent US20240197632A1 (VETERINARY PHARMACY CORPORATION, priority 2022, published 2024).

**Q.** Which “general solubility property in water” value does the source give for CC(C)Cc1ccc(C(C)C(=O)O)cc1 (stereo not shown) [Ibuprofen, 2-(4-Isobutylphenyl)propanoic acid] here?
**A.** 0.0021 % wt/vol
